Measurements published in patent publication US20260209152A1, “Substituted Hydroxystilbene Compounds and Derivatives, Synthesis and Uses Thereof” (Kynan Duke IP, LLC, priority 2019, published 2026).
Where two headings read alike, the source gives them in different places.

Experiments:
Type in all cases: cell-based, human
Pancreatic MIA PaCa-2 = assay: CellTiter Glo cell viability assay; conditions: read-out: IC50
Procedure: (§1) 1.7*10^3 cells/well were seeded in quadruplicates in 96-well plate after plating. Drugs were added at 5 μM and 2-fold dilutions over 18 concentrations (0.000038146-5 M concentration range) to generate a dose-response curve. Cell growth was assessed on day 1, 3 and 5 after drug treatments using the CellTiter Glo Luminescence Cell Viability Assay (Promega) according to manufacturer's protocol. Thermo Scientific Varioskan LUX Multimode Microplate instrument was used for plate reading. Data are expressed as mean luminescence (arbitrary units) ±S.D.
(§2) Cell Viability Assays were employed to determine the concentration of Compound 1 (KYN-001) and analogues where the response is reduced by half. For each treatment of cancer cells, 1, 2, 5, 10 and 20 μM solutions of compounds were applied. GraphPad Prism 7 software was used to fit dose response curves. Relative Luminescence Units were plotted against the log values of the doses used and the nonlinear regression model was used for data analysis.
(§3) The protocol for cell proliferation was optimized for Compound 8 (KYN-119) to enable a more accurate assessment of its low IC50 value. In this protocol, 18 dosages (2 fold dilutions ranging from 0.000038146 to 5 μM) were applied to cells seeded in 96-well plates, and Luminescence was measured after 1, 3 and 5 days upon treatments.
Day 3 upon treatment of MIA PaCa_2 pancreatic cancer cells, 24 h after plating (11 dilutions), as assessed by CellTiter Glow Assay.

Kidney A-498 = assay: CellTiter Glo cell viability assay; conditions: read-out: IC50
Procedure: as §1, with “Drugs were added at 5 μM and 2-fold dilutions over 18 concentrations (0.000038146-5 M concentration range) to generate a dose-response curve.” left out
as §2, with “For each treatment of cancer cells, 1, 2, 5, 10 and 20 μM solutions of compounds were applied.” left out
The protocol for cell proliferation was optimized for Compound 8 (KYN-119) to enable a more accurate assessment of its low IC50 value. […]

[1] = test system: Cancer cells including pancreatic, bladder, kidney, colon, breast, lung, liver and osteosarcomas; assay: CellTiter Glo cell viability assay, panel of cancer cell lines; conditions: SAR discussion based on IC50 values in Tables 1 to 5; compared with 1 [KYN-001]
Procedure: Compounds 1 to 15 were evaluated and their effect on cancer growth examined in cell viability assays on multiple cancer types (Tables 1 to 5). Cancer cells including pancreatic, bladder, kidney, colon, breast, lung, liver and osteosarcomas obtained from ATCC (American Type Culture Collection) were authenticated before use by Short Tandem Repeat genomic analysis (Reid Y, Storts D, Riss T and Minor L. Authentication of Human Cell Lines by STR DNA Profiling Analysis. 2013 May 1. In: Markossian S, Sittampalam G S, Grossman A, et al., editors. Assay Guidance Manual. Bethesda (MD): Eli Lilly & Company and the National Center for Advancing Translational Sciences; 2004.). Experimental protocol for each cancer cell line was verified and optimized according to literature reports before use (Tables 1 to 3).
as §1, §2, §3

Bladder RT-112 = assay: CellTiter Glo cell viability assay; conditions: Homo sapiens, RT-112, 72 h, Table 4: 3 Days of treatment; 18 2-fold dilutions 5-0.00003 μM; Average (1, 8) or single Exp A-D; read-out: IC50
Procedure: as §1, §2, §3

[2] = Homo sapiens, MIA PaCa-2, 72 h, Table 4: 3 Days of treatment, 18 2-fold dilutions 5-0.00003 μM, Average (1, 8) or single Exp A-D
[3] = Table 5A: 11 dilutions 3-0.00001 μM, single experiments Exp E-K, listed as KYN-140
[4] = Homo sapiens, A498, 72 h, Table 4: 3 Days of treatment, 18 2-fold dilutions 5-0.00003 μM, Average (1, 8) or single Exp A-D
[5] = Homo sapiens, A498, Table 5A: 11 dilutions 3-0.00001 μM, single experiments Exp E-K
[6] = Homo sapiens, MIA PaCa-2, Table 5A: 11 dilutions 3-0.00001 μM, single experiments Exp E-K
[7] = Table 5A: 11 dilutions 3-0.00001 μM, single experiments Exp E-K
[8] = Table 5A: 11 dilutions 3-0.00001 μM, single experiments Exp E-K, listed as KYN-139

C=CC(C)c1c(/C=C/c2ccc(O)c(OC)c2)cc(O)cc1OC (stereo not shown) [Compound 4, (E)-4-(but-3-en-2-yl)-3-(4-hydroxy-3-methoxystyryl)-5-methoxyphenol]
IC50 (Pancreatic MIA PaCa-2; [2]): 755 nM | IC50 (Pancreatic MIA PaCa-2; [3]): 746 nM | IC50 (Kidney A-498; [4]): 667 nM | IC50 (Kidney A-498; [3]): 754 nM

COc1cc(/C=C/c2cc([N+](=O)[O-])cc(OC)c2CC=C(C)C)ccc1O [Compound 42, (E)-2-Methoxy-4-(3-methoxy-2-(3-methylbut-2-en-1-yl)-5-nitrostyryl)phenol]
IC50 (Kidney A-498; [5]): ~3000 nM | Cancer cell viability inhibition, statement in words [1]: almost complete loss of anticancer activity

C/C=C/Cc1c(/C=C/c2ccc(O)c(OC)c2)cc(O)cc1OC [Compound 2, 4-((E)-but-2-en-1-yl)-3-((E)-4-hydroxy-3-methoxystyryl)-5-methoxyphenol]
IC50 (Pancreatic MIA PaCa-2; [2]): 119 nM | IC50 (Pancreatic MIA PaCa-2; [6]): 100 to 1000 nM | IC50 (Pancreatic MIA PaCa-2; [7]): 135 nM | IC50 (Kidney A-498; [4]): 117 nM | IC50 (Kidney A-498; [5]): 100 to 1000 nM | IC50 (Kidney A-498; [7]): 132 nM | Cancer cell viability inhibition, statement in words [1]: biological activity comparable with 1

CCOc1cc(O)cc(/C=C/c2ccc3[nH]c(=O)oc3c2)c1CC=C(C)C [Compound 52, (E)-6-(3-Ethoxy-5-hydroxy-2-(3-methylbut-2-en-1-yl)styryl)benzo[d]oxazol-2(3H)-one]
Cancer cell viability inhibition, statement in words [1]: no significant activity

CCOc1cc(O)cc(/C=C/c2ccc(NC(=O)CN)c(OC)c2)c1CC=C(C)C [Compound 32, (E)-2-Amino-N-(4-(3-ethoxy-5-hydroxy-2-(3-methylbut-2-en-1-yl)styryl)-2-methoxyphenyl)acetamide]
IC50 (Kidney A-498; [5]): 1840 nM

CCOc1cc(O)cc(/C=C/c2ccc(O)c(NC=O)c2)c1CC=C(C)C [Compound 41, (E)-N-(5-(3-Ethoxy-5-hydroxy-2-(3-methylbut-2-en-1-yl)styryl)-2-hydroxyphenyl)formamide]
IC50 (Pancreatic MIA PaCa-2; [6]): > 3000 nM | Cancer cell viability inhibition, statement in words [1]: inactive or weakly active

C/C=C/Cc1c(/C=C/c2ccc(O)c(OC)c2)cc(O)cc1OCC [Compound 5, 4-((E)-But-2-en-1-yl)-3-ethoxy-5-((E)-4-hydroxy-3-methoxystyryl)phenol]
IC50 (Pancreatic MIA PaCa-2; Table 5A: 11 dilutions 3-0.00001 μM, single experiments Exp E-K, listed as KYN-153): 27.5 nM | IC50 (Kidney A-498; [5]): 1190 nM

CCOc1cc(O)cc(/C=C/c2ccc(NC(=O)CCC(=O)O)c(OC)c2)c1CC=C(C)C [Compound 37, (E)-4-((4-(3-Ethoxy-5-hydroxy-2-(3-methylbut-2-en-1-yl)styryl)-2-methoxyphenyl)amino)-4-oxobutanoic acid]
IC50 (Pancreatic MIA PaCa-2; [6]): > 3000 nM

COc1cc(/C=C/c2cc(N)cc(OC)c2CC=C(C)C)ccc1O [Compound 43, (E)-4-(5-Amino-3-methoxy-2-(3-methylbut-2-en-1-yl)styryl)-2-methoxyphenol]
IC50 (Pancreatic MIA PaCa-2; [6]): ~3000 nM | IC50 (Kidney A-498; [5]): ~3000 nM | Cancer cell viability inhibition, statement in words [1]: No significant enhancement of activity

COc1cc(/C=C\c2cc(O)cc(OC)c2CC=C(C)C)ccc1NS(C)(=O)=O [Compound 26, (Z)—N-(4-(5-hydroxy-3-methoxy-2-(3-methylbut-2-en-1-yl)styryl)-2-methoxyphenyl)methanesulfonamide]
Cancer cell viability inhibition, statement in words [1]: Total loss of the anti-proliferative effect

CCOc1cc(O)cc(/C=C/c2ccc(NC=O)c(O)c2)c1CC=C(C)C [Compound 40, (E)-N-(4-(3-Ethoxy-5-hydroxy-2-(3-methylbut-2-en-1-yl)styryl)-2-hydroxyphenyl)formamide]
IC50 (Pancreatic MIA PaCa-2; [6]): > 3000 nM | IC50 (Kidney A-498; [5]): 2930 nM | Cancer cell viability inhibition, statement in words [1]: very strongly weakened activity

[H]/N=C(\N)Nc1ccc(C=Cc2cc(O)cc(OCC)c2CC=C(C)C)cc1OC [Compound 38, (E)-1-(4-(3-ethoxy-5-hydroxy-2-(3-methylbut-2-en-1-yl)styryl)-2-methoxyphenyl)guanidine]
IC50 (Pancreatic MIA PaCa-2; [6]): > 3000 nM | IC50 (Kidney A-498; [5]): 100 to 1000 nM | IC50 (Kidney A-498; [7]): ~100 nM

COc1cc(/C=C/c2cc(O)cc(C(F)(F)F)c2CC=C(C)C)ccc1O [Compound 46, (E)-3-(4-hydroxy-3-methoxystyryl)-4-(3-methylbut-2-en-1-yl)-5-(trifluoromethyl)phenol]
Cancer cell viability inhibition, statement in words [1]: complete loss of biological activity

COc1cc(/C=C/c2cc(O)cc(OC)c2CC=C(C)C)cc(O)c1O [Compound 18, (E)-5-(5-Hydroxy-3-methoxy-2-(3-methylbut-2-en-1-yl)styryl)-3-methoxybenzene-1,2-diol]
IC50 (Pancreatic MIA PaCa-2; [6]): ~1000 nM | IC50 (Kidney A-498; [5]): ~3000 nM

C/C=C\Cc1c(/C=C/c2ccc(O)c(OC)c2)cc(O)cc1OC [Compound 3, 4-((Z)-but-2-en-1-yl)-3-((E)-4-hydroxy-3-methoxystyryl)-5-methoxyphenol]
IC50 (Pancreatic MIA PaCa-2; [2]): 381 nM | IC50 (Pancreatic MIA PaCa-2; [8]): 520 nM | IC50 (Kidney A-498; [4]): 361 nM | IC50 (Kidney A-498; [8]): 545 nM

CCOc1cc(O)cc(/C=C/c2ccc(NCC(=O)OC)c(OC)c2)c1CC=C(C)C [Compound 34, Methyl (E)-(4-(3-ethoxy-5-hydroxy-2-(3-methylbut-2-en-1-yl)styryl)-2-methoxyphenyl)glycinate]
IC50 (Pancreatic MIA PaCa-2; [6]): 100 to 1000 nM | IC50 (Pancreatic MIA PaCa-2; [7]): 173 nM

COc1cc(/C=C/c2cc(O)cc(OC)c2CC=C(C)C)ccc1NS(C)(=O)=O [Compound 25, (E)-N-(4-(5-hydroxy-3-methoxy-2-(3-methylbut-2-en-1-yl)styryl)-2-methoxyphenyl)methanesulfonamide]
IC50 (Pancreatic MIA PaCa-2; [2]): 7740 nM | IC50 (Kidney A-498; [5]): 15000 nM

COc1cc(/C=C/c2cc(O)cc(OC)c2CC=C(C)C)ccc1C(=O)O [Compound 21, (E)-4-(5-Hydroxy-3-methoxy-2-(3-methylbut-2-en-1-yl)styryl)-2-methoxybenzoic acid]
IC50 (Pancreatic MIA PaCa-2; [6]): > 3000 nM | IC50 (Kidney A-498; [5]): > 3000 nM | IC50 (Kidney A-498; [7]): ~3000 nM

COc1cc(O)cc(/C=C/c2cc(O)cc(OC)c2CC=C(C)C)c1 [Compound 19, (E)-3-(3-Hydroxy-5-methoxystyryl)-5-methoxy-4-(3-methylbut-2-en-1-yl)phenol]
IC50 (Pancreatic MIA PaCa-2; [6]): 921 nM | IC50 (Kidney A-498; [5]): > 3000 nM | Cancer cell viability inhibition, statement in words [1]: strongly weakened activity

C=CCc1c(/C=C/c2ccc(O)c(OC)c2)cc(O)cc1OC [Compound 6, (E)-4-allyl-3-(4-hydroxy-3-methoxystyryl)-5-methoxyphenol]
IC50 (Pancreatic MIA PaCa-2; [6]): 1280 nM | IC50 (Kidney A-498; [4]): 1590 nM | IC50 (Kidney A-498; [5]): 1090 nM | IC50 (Bladder RT-112): 862 nM

COc1cc(O)cc(/C=C/c2ccc(O)c(N(C)C)c2)c1CC=C(C)C [Compound 16, (E)-3-(3-(Dimethylamino)-4-hydroxystyryl)-5-methoxy-4-(3-methylbut-2-en-1-yl)phenol]
IC50 (Pancreatic MIA PaCa-2; [6]): > 3000 nM | IC50 (Kidney A-498; [5]): > 3000 nM | Cancer cell viability inhibition, statement in words [1]: inactive or weakly active

COc1cc(/C=C/c2cc(NC=O)cc(OC)c2CC=C(C)C)ccc1O [Compound 44, (E)-N-(3-(4-Hydroxy-3-methoxystyryl)-5-methoxy-4-(3-methylbut-2-en-1-yl)phenyl)formamide]
IC50 (Pancreatic MIA PaCa-2; [6]): 1160 nM | IC50 (Kidney A-498; [5]): 2040 nM | Cancer cell viability inhibition, statement in words [1]: No significant enhancement of activity

COc1cc(/C=C/c2cc(O)cc(OC)c2Cc2ccccc2)ccc1O [Compound 7, (E)-4-benzyl-3-(4-hydroxy-3-methoxystyryl)-5-methoxyphenol]
IC50 (Kidney A-498; [4]): 288 nM | IC50 (Kidney A-498; [5]): 100 to 1000 nM | IC50 (Kidney A-498; [7]): 199 nM | IC50 (Bladder RT-112): 170 nM
